# Laboratory results taken from ChEMBL document CHEMBL5136980, “Indoleamine 2,3-dioxygenase 1 (IDO1) inhibitors and PROTAC-based degraders for cancer therapy” (Eur J Med Chem, 2022).
# Legend:
# Ehrlich = test: Antitumor activity against mouse Ehrlich ascites carcinoma allografted in Swiss albino mouse assessed tumor growth inhibition by measuring CD8+ T cells relative to control; format: functional
# [1] = biological target: T1, Indoleamine 2,3-dioxygenase 1 (Homo sapiens, UniProt P14902); test: Inhibition of IDO1 (unknown origin) using L-tryptophan incubated for 30 mins by microplate reader method
# [2] = biological target: T1, Indoleamine 2,3-dioxygenase 1; test: Inhibition of IDO1 (unknown origin)
# Homo sapiens = species: Homo sapiens; test: Ratio of IC50 for IDO1 (unknown origin) to IC50 for IDO1 in human HeLa cells; format: cell-based
# [3] = biological target: T2, Protein cereblon/Indoleamine 2,3-dioxygenase 1 (Homo sapiens, UniProt P14902+Q96SW2); test: Protac activity at CRBN/IDO1 in human HeLa cells assessed as IDO1 protein degradation; format: cell-based
# Target sequence in this assay (P14902 whole entry): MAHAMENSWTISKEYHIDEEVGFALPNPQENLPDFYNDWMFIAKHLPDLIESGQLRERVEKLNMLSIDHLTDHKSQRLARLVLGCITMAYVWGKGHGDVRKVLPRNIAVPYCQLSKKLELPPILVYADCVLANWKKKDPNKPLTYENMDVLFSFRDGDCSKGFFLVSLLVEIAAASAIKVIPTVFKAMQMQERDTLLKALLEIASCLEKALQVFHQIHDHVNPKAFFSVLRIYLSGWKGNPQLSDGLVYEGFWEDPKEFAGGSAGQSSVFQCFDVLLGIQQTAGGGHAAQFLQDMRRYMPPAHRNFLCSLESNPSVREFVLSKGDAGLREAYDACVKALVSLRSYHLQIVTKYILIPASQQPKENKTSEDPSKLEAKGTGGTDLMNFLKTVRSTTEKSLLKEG
# Target sequence in this assay (Q96SW2 whole entry): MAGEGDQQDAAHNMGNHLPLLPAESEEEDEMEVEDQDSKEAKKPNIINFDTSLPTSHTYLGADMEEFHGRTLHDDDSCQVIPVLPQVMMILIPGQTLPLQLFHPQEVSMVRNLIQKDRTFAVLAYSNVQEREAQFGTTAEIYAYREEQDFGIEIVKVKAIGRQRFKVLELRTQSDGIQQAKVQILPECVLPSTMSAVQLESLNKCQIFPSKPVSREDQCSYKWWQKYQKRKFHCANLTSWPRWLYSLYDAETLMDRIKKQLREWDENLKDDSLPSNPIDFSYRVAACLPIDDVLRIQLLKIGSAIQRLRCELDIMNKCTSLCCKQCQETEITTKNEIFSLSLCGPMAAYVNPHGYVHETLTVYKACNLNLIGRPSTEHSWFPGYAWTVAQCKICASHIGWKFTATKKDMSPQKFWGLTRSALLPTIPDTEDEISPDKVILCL
# HeLa = test: Cytotoxicity against human HeLa cells assessed as cell viability incubated for 48 hrs by MTT assay; format: functional, cell-based
# [4] = biological target: T2, Protein cereblon/Indoleamine 2,3-dioxygenase 1; test: Protac activity at CRBN/IDO1 in human HeLa cells assessed as IDO1 protein degradation relative to control; format: cell-based
# Target sequence in this assay (P14902 whole entry, looked up): as the sequence (P14902 whole entry) above
# Target sequence in this assay (Q96SW2 whole entry, looked up): as the sequence (Q96SW2 whole entry) above
# [5] = biological target: T1, Indoleamine 2,3-dioxygenase 1; test: Inhibition of IDO1 in IFN-gamma stimulated human HeLa cells in presence of heme measured after 20 hrs by heme-competitive binding assay; format: cell-based
# [6] = Oral bioavailability in ICR mouse 30 mg/kg measured after 0.0833 to 24 hrs by liquid chromatography/tandem mass spectrometric analysis; format: ADME, organism-based; settings: in vivo, time 0.0833-24 hrs
# T1 sequence (P14902 whole entry): as the sequence (P14902 whole entry) above
compound,measurement,setting,value
NC(=O)c1n[nH]nc1-c1ccc(F)c(F)c1,TGI,Ehrlich,96%
CC1=CCC[C@@H](C)[C@]1(C)C[C@]1(C)[C@@H](O)CC[C@]2(C)[C@@]3(C)CC[C@]4(C)c5c(C(O)C(=O)O)ccc(O)c5C[C@H]4[C@]3(C)CC[C@]21C (some centres not stated),IC50,[1],240 nM
CC(C)Oc1ccc(S(=O)(=O)NC2CCCc3cnccc32)cc1 (configuration not stated),IC50,[2],< 50 nM
OC(CC1c2cc(F)ncc2-c2cncn21)C1CCCCC1 (configuration not stated),IC50,[2],< 100 nM
OC1CCC(C(F)(F)CC2c3c(F)cccc3-c3cncn32)CC1 (configuration not stated),IC50,[2],< 100 nM
Clc1ccc(Nc2cn[nH]n2)cc1,Ratio IC50,Homo sapiens,> 500
Cn1cc(-c2ccc(NC(=O)N3CCC(C(=O)/C(=N/O)Nc4ccc(F)c(Br)c4)CC3)cc2)cn1,IC50,[2],4 nM
Nc1nonc1/C(=N/O)N1Cc2ccccc2C1,IC50,[2],1.57 nM
CCC(C(=O)Nc1ccc(Cl)cc1)[C@H]1CC[C@H](Oc2ccnc3ccccc23)CC1 (some centres not stated),IC50,[2],> 50 nM
COC1CN(CCNc2nc3c(F)c(F)cc(/C(=N/O)Nc4cccc(Br)c4)c3[nH]2)C1,IC50,[2],111 nM
O=S(=O)(Nc1cccc2cnccc12)c1ccc2c(c1)OCCO2,IC50,[2],> 50 nM
O=C(Nc1ccc(Cl)cc1)N[C@H]1CC[C@H](c2ccnc3ccc(F)cc32)CC1,IC50,[2],< 50 nM
Cn1cc(-c2cc(F)c(NC(=O)NCC3c4ccccc4-c4cncn43)cc2F)cn1 (configuration not stated),IC50,[2],16 nM
CC(C(=O)Nc1ccc(Cl)cc1)N1CCC(Oc2ccnc3ccc(F)cc23)CC1 (configuration not stated),IC50,[2],> 50 nM
O/N=C(/CCC1CCCCC1)Nc1cccc(Cl)c1,IC50,[2],< 1 nM
N#Cc1ccc(NC(=O)NCC2c3ccccc3-c3cncn32)cc1 (configuration not stated),IC50,[2],< 50 nM
CC(C(=O)Nc1ccc(Cl)cc1)[C@H]1CC[C@H](Oc2ccnc(C(F)(F)F)c2)CC1 (some centres not stated),IC50,[2],> 250 nM
O=C1CCC(N2C(=O)c3cccc(NCCOCCOCCOCCOCCOCCOCCOCCNCCNc4nonc4/C(=N/O)Nc4cccc(Br)c4)c3C2=O)C(=O)N1 (configuration not stated),DC50,[3],2840 nM
same,IC50,HeLa,37400 nM
same,Emax,[4],93%
same,IC50,[2],1070 nM
C[C@@H](C(=O)Nc1ccc(C#N)cc1)[C@H]1CC[C@@H](c2ccnc3ccc(F)cc32)CC1,IC50,[5],< 100 nM
O[C@@H](C[C@H]1c2ccccc2-c2cncn21)c1cc2ccoc2cc1F,IC50,[2],< 200 nM
O=S(=O)(NCCCOc1ccccc1-c1c[nH]cn1)C(F)(F)F,bioavailability,[6],96%
CC(C(=O)Nc1ccc(Cl)cc1)C1CCC(c2ccnc(C(F)(F)F)c2)CC1 (configuration not stated),IC50,[2],< 50 nM
C[C@@H](NC(=O)c1ccc(Cl)cc1)[C@H]1CC[C@@H](c2ccnc3ccc(F)cc32)CC1,IC50,[2],< 50 nM
C[C@@H](NS(=O)(=O)c1cccc(Cl)c1)[C@H]1CC[C@@H](c2ccnc3ccc(F)cc32)CC1,IC50,[2],< 50 nM
